Reference: patent US20220152203A1, “BROAD-BASED THERAPEUTIC FOR INACTIVATING COVID-19 AND OTHER VIRAL PATHOGENS USING CHEMILUMINESCENCE-ACTIVATED COMPOUNDS ENCAPSULATED IN NANOPARTICLES” (priority 2020, published 2022)
In brackets after ≈: the same amount, converted by molar mass. Several values for one entry are separate records, joined by “and”; a condition that tells them apart may be missing. Equal values may be shown once. Read-outs that look alike come from different tables or passages of the source.

Key:
[1] = cited from earlier work
[2] = system: HIV; conditions: hypericin with “molecular flashlight”, cell culture in vitro; cited from earlier work
[3] = system: HIV-1ΔtatΔrev; type: cell-based
[4] = −20° C. in the absence of light and oxygen; cited from earlier work

| SMILES | solubility in DMSO ([1]; DMSO) | solubility in methanol ([1]; methanol) | effect on host cells [2] | HIV p24 concentration as a function of time after infection ([3]; day 0 (inoculum), hypericin exposed to the light (positive control)) | HIV p24 concentration as a function of time after infection ([3]; day 0 (inoculum), not exposed to light, hypericin 5 μmol, 2 h 37° C., replicates 1-3) | HIV p24 concentration as a function of time after infection ([3]; day 3, hypericin exposed to the light (positive control)) | HIV p24 concentration as a function of time after infection ([3]; day 3, not exposed to light, hypericin 5 μmol, 2 h 37° C., replicates 1-3) | HIV p24 concentration as a function of time after infection ([3]; day 6, hypericin exposed to the light (positive control)) | HIV p24 concentration as a function of time after infection ([3]; day 6, not exposed to light, hypericin 5 μmol, 2 h 37° C., replicates 1-3, listed as Hyp only) | HIV p24 concentration as a function of time after infection ([3]; day 9, hypericin exposed to the light (positive control)) | HIV p24 concentration as a function of time after infection ([3]; day 9, not exposed to light, hypericin 5 μmol, 2 h 37° C., replicates 1-3, listed as Hyp only) | HIV p24 concentration as a function of time after infection ([3]; day 13, hypericin exposed to the light (positive control)) | HIV p24 concentration as a function of time after infection ([3]; day 13, not exposed to light, hypericin 5 μmol, 2 h 37° C., replicates 1-3, listed as Hyp only) | HIV p24 concentration as a function of time after infection ([3]; day 16, hypericin exposed to the light (positive control)) | HIV p24 concentration as a function of time after infection ([3]; day 16, not exposed to light, hypericin 5 μmol, 2 h 37° C., replicates 1-3, listed as Hyp only) | HIV p24 concentration as a function of time after infection ([3]; day 20, hypericin exposed to the light (positive control)) | HIV p24 concentration as a function of time after infection ([3]; day 20, not exposed to light, hypericin 5 μmol, 2 h 37° C., replicates 1-3, listed as Hyp only) | storage stability [4] | solubility ([1]; DMSO) |
| --- | --- | --- | --- | --- | --- | --- | --- | --- | --- | --- | --- | --- | --- | --- | --- | --- | --- | --- | --- |
| O=C(O)C1CSC(c2nc3ccc(O)cc3s2)=N1 [D-luciferin, 4,5-Dihydro-2-(6-hydroxy-2-benzothiazolyl)-4-thiazolecarboxylic acid] | 50 mg/mL (≈ 178 mM) | 10 mg/mL (≈ 35.7 mM) | – | – | – | – | – | – | – | – | – | – | – | – | – | – | – | – | – |
| Cc1cc(O)c2c(=O)c3c(O)cc(O)c4c5c(O)cc(O)c6c(=O)c7c(O)cc(C)c8c1c2c(c34)c(c78)c65 [hypericin, Hypericin] | – | – | without harming these cells | 1 ng/mL | 1 ng/mL | 0.05 ng/mL | 0.05 ng/mL | 0.05 ng/mL | 19.34 ng/mL and 12.13 ng/mL and 11 ng/mL | 3 ng/mL | 1,055 ng/ml and 831 ng/ml and 1,120 ng/ml | 2.9 ng/mL | 1,985 ng/ml and 3,501 ng/ml and 3,270 ng/ml | 0.05 ng/mL | 1,870 ng/ml and 1543 ng/ml and 923 ng/ml | 6.6 ng/mL | 1,763 ng/ml and 2,789 ng/ml and 2,775 ng/ml | stable | soluble in DMSO |
